{"source": "patent US20240181000A1", "about": "“LGG-DERIVED PEPTIDES AND METHODS OF USE THEREOF” (Ohio State Innovation Foundation, priority 2021, published 2024)", "key": {"multiple APEC serotypes": {"test_system": "multiple APEC serotypes", "format": "cell-based, E. coli", "protocol": "Anti-APEC spectrum determination: Peptides (P1, P2, and P3) were tested against multiple APEC serotypes/strains to determine their spectrum of activity. Peptides were added at their MICs and the growth inhibitory activity of the peptides was determined as described above."}, "Salmonella Javiana": {"test_system": "Salmonella Javiana", "format": "cell-based", "protocol": "(§1) Peptide protection against varied Salmonella serovars: To further test the spectrum of the peptides anti-Salmonella capabilities, eight additional Salmonella serovars commonly implicated in foodborne illness (S. Anatum, S. Albany, S. Brenderup, S. Javiana, S. Heidelberg, S. Muenchen, S. Newport, S. Saintpaul) were analyzed. P1, P2, and P4 (selected based on dose response assay results) were added to the assay at their MICs to determine their effect on different serovars. Inhibition was determined using criteria from above."}, "APEC O78": {"test_system": "APEC O78", "format": "cell-based, E. coli", "protocol": "Anti-APEC activity determination: The anti-APEC activity of peptides was determined in LB broth following CLSI guidelines. Briefly, overnight grown APEC O78 was adjusted to 5×10^5 CFU/mL concentration in fresh LB media. One-hundred microliters of APEC suspension was aliquoted into the wells of the 96-well plate. Peptides were added to the wells at 6 mM and 12 mM concentrations and incubated at 37° C. in TECAN Sunrise™ absorbance microplate reader with kinetic absorbance measurement set at every 30 mins for 12 h. Sterile media and DMSO (solvent) were used as controls. The growth inhibitory activity of the peptides against APEC was calculated using the formula: (OD600 DMSO treated well−OD600 peptide treated well)/OD600 DMSO treated well×100%.\nThe minimum inhibitory concentration (MIC) was determined for selected peptides (P1, P2, P3, and P4) using similar assay as above. Peptides were added to the wells of the 96-well plate at 6 mM, 9 mM, 12 mM, 15 mM, and 18 mM concentrations. The peptide concentration at which there is no visible APEC growth (no OD increase) was determined as MIC. Two independent experiments were conducted.\nArginine and lysine substituted peptide analogues: The non-essential amino acid residues identified in each peptide were substituted with arginine/lysine to test whether these substitutions enhance the anti-APEC activity of peptides. The MICs of arginine and lysine substituted peptide analogues ([…] (SEQ ID NO:37), […] (SEQ ID NO:38), […] (SEQ ID NO:39), KDENK (SEQ ID NO:41), PDEKK (SEQ ID NO:42), KDEKK (SEQ ID NO:43), KHTAPK (SEQ ID NO:45), VKTAPK (SEQ ID NO:46), VHTKPK (SEQ ID NO:47), and KKTKPK (SEQ ID NO:48)) were determined as above and compared with original peptides."}, "APEC [1]": {"test_system": "APEC", "format": "in vivo, chickens", "conditions": "in vivo", "from_the_text": "FIGS. 57A-57D show the APEC load of chickens (at 7 dpi [days post infection]) treated with either peptides P-1 or P-2."}, "APEC [2]": {"test_system": "APEC", "conditions": "in vivo", "protocol": "FIGS. 58A-58B show the APEC load after treatment 8 days dpi with LGG and 50 mg/mL of peptides in drinking water."}, "Salmonella Saintpaul": {"test_system": "Salmonella Saintpaul", "test": "MIC against serovars", "format": "cell-based", "protocol": "as §1"}, "Salmonella Brenderup": {"test_system": "Salmonella Brenderup", "test": "MIC against serovars", "format": "cell-based", "protocol": "as §1"}}, "note": "Like-named read-outs stand apart in the source and are kept apart here. No end group written: not given here."}
{"sequence": "NPSRQERR [Peptide P1]", "values": [{"measurement": "Growth inhibition against APEC serotypes", "setting": "multiple APEC serotypes", "value": "95.1-100%"}, {"measurement": "MIC", "setting": "Salmonella Javiana", "value": 18, "unit": "mM"}, {"measurement": "MIC50", "setting": "APEC O78", "value": 14.7, "unit": "mM"}, {"measurement": "Bodyweight", "setting": "APEC [1]", "value": "no significant effect"}, {"measurement": "Bodyweight", "setting": "APEC [2]", "value": "no significant effect"}, {"measurement": "MIC", "setting": "Salmonella Saintpaul", "value": 18, "unit": "mM"}, {"measurement": "MIC", "setting": "Salmonella Brenderup", "value": 18, "unit": "mM"}]}
